Active and inactive are the calls of the source. For most assays here, no stated cut-off is given here; in the data, active = IC50 of 10 µM or less and inactive = more. A value given as a limit tells only on which side of the number the result lay.

What all share (assay type): functional
In assay [1] the target is DNA dC->dU-editing enzyme APOBEC-3A (Homo sapiens, UniProt P31941). As to the kind of experiment: SAR analysis of small molecule inhibitors of APOBEC3A DNA Deaminase via a fluorescence-based single-stranded DNA deaminase assay. As to conditions: read-out: IC50_Mean.
DNA dC->dU-editing enzyme APOBEC-3A, sequence (P31941 whole entry): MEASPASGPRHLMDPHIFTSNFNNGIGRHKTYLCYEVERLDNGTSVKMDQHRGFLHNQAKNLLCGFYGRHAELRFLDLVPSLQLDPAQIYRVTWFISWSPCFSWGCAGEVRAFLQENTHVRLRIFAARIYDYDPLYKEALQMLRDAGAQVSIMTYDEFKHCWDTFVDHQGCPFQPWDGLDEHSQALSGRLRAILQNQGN
Assay [2] addresses DNA dC->dU-editing enzyme APOBEC-3G (Homo sapiens, UniProt Q9HC16). As to the kind of experiment: APOBEC3G deaminase inhibitors, SAR follow-up, biochemical, fluorescence, single-stranded DNA substrate (AID 602136). The note with it: read-out: IC50_Mean.
Assay [3] addresses DNA (cytosine-5)-methyltransferase 1 (Homo sapiens, UniProt P26358). As to the kind of experiment: DNMT1 methyltransferase inhibitors, confirmation, biochemical, fluorescent molecular beacon (AID 602386).

DNA dC->dU-editing enzyme APOBEC-3G, sequence (Q9HC16 whole entry): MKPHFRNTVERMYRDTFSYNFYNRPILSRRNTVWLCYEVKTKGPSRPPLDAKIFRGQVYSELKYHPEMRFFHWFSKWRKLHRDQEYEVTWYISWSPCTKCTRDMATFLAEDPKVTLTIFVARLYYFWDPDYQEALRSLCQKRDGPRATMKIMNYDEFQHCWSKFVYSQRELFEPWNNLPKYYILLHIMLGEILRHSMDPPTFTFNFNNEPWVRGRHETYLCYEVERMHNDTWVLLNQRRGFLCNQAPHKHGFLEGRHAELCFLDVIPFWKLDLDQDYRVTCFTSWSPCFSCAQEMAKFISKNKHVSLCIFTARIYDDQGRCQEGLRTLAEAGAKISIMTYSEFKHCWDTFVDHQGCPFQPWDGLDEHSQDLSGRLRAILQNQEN
DNA (cytosine-5)-methyltransferase 1, sequence (P26358 whole entry): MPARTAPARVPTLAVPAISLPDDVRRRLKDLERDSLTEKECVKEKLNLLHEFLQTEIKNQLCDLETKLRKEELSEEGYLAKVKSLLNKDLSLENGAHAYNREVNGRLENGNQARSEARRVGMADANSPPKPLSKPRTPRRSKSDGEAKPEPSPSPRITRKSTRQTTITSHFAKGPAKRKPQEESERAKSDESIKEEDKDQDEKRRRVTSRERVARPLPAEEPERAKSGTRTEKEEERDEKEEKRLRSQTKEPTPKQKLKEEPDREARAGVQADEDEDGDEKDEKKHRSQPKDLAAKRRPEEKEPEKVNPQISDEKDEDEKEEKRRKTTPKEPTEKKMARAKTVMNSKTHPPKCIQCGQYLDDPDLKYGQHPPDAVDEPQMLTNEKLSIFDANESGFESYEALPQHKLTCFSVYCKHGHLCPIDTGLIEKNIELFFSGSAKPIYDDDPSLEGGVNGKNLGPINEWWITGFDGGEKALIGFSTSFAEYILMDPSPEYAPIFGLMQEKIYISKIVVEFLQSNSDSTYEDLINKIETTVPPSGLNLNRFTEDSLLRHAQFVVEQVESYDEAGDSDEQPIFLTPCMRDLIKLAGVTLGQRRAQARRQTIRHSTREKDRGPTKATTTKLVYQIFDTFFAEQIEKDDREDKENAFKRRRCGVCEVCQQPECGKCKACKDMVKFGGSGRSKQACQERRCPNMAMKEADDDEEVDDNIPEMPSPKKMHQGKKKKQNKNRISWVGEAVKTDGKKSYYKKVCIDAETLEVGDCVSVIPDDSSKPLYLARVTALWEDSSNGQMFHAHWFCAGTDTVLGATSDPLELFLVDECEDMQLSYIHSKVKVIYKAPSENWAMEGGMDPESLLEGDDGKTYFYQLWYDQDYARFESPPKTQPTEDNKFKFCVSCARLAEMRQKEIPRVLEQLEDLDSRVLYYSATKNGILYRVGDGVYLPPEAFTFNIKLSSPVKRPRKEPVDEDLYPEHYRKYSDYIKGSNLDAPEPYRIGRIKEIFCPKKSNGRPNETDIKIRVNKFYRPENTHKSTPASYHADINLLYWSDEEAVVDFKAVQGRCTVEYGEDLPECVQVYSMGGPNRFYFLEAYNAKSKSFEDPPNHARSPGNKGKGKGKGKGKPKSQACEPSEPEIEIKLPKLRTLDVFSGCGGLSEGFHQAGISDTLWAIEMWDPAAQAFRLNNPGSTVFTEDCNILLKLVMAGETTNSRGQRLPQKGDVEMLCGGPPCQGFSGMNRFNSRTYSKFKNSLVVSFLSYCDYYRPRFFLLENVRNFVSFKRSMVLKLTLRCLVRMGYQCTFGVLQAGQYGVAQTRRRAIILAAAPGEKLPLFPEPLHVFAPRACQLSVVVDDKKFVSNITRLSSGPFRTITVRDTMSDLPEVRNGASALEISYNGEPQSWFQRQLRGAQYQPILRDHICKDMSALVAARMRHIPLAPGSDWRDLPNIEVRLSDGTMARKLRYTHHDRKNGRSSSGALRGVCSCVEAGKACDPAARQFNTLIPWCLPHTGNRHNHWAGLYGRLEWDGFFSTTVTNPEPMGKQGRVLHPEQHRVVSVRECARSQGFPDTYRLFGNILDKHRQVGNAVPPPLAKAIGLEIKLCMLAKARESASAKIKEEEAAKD

With `Cc1ccc(Cl)c2c1N[C@@H](c1ccccc1Br)[C@H]1CC=C[C@@H]21`, the IC50 in assay [1] and in assay [2] was > 99 µM (inactive) each time.

On to `CCc1ccc(Nc2nc(Nc3ccc(OC)cc3)nc(N3CCCC3)n2)cc1`, for which the IC50 in assay [1] and in assay [2] was > 99 µM (inactive) each time.

As for `Cc1ccc2cc3c(N)c4c(C)ccc(C)c4nc3nc2c1`, the IC50 in assay [3] is > 99 µM (inactive).

For the origin of these results see ChEMBL document CHEMBL1201862, “PubChem BioAssay data set” (2004).
